Measurements from patent US20100056544A1, “Salts with CRTH2 Antagonist Activity” (Oxagen Limited, priority 2007, published 2010).
Like-named read-outs stand apart in the source and are kept apart here.

Tests used:
[1] = cited from earlier work; for pKa of base: Table 5; for pKa 1: pKa value of base, Tables 2-4
[2] = Solubility of the salts in water determined by HPLC, with pH of the filtered mixtures; details: for Solubility: HPLC grade water, stirred 18 hours at 15 to 25° C., filtered, HPLC
[3] = basic solubility screen of Compound 1 free acid in solvents; type: physicochemical; details: for Solution Yes/No 20 vol R.T.: 50 mg, stirred at 15 to 25° C.
[4] = pH of the filtered mixtures in water

OCCN1CCCC1 [1-(2-Hydroxyethyl)pyrrolidine]
pKa of base [1]: 9.4 | pKa 1 [1]: 9.4

OCCN1CCOCC1 [4-(2-Hydroxyethyl)morpholine]
pKa of base [1]: 7.4 | pKa 1 [1]: 7.4

Cc1c(Cc2ccc3ccccc3n2)c2cc(F)ccc2n1CC(=O)O [Ammonium, (5-fluoro-2-methyl-3-quinolin-2-ylmethyl-indol-1-yl)acetic acid]
pH [2]: 8 | Solubility [2]: 4.98 mg/mL

C[N+](C)(C)CC(=O)O [Betaine]
pKa of base [1]: 12.2

C[N+](C)(C)CCO [Choline]
pKa of base [1]: >11 | pKa 1 [1]: >11

Cc1c(Cc2ccc3ccccc3n2)c2cc(F)ccc2n1CC(=O)O [Compound 1, (5-fluoro-2-methyl-3-quinolin-2-ylmethyl-indol-1-yl)acetic acid]
Solubility [2]: 0.05 mg/mL | pH [2, 4]: 7 | solubility in NMP (50 mg retained in 20 vol) ([3]; NMP at 15 to 25° C. after obtaining a solution at 100° C.): ≥ 50 mg per ml | Solution Yes/No 20 vol reflux ([3]; solvent Acetone): No | Solution Yes/No 40 vol reflux ([3]; solvent Acetone): No | Solution on cooling to R.T. ([3]; solvent Acetone): No | Solution Yes/No 20 vol R.T. ([3]; solvent Acetone): No | Solution Yes/No 20 vol reflux ([3]; solvent Acetonitrile): No | Solution Yes/No 40 vol reflux ([3]; solvent Acetonitrile): No | Solution on cooling to R.T. ([3]; solvent Acetonitrile): No | Solution Yes/No 20 vol R.T. ([3]; solvent Acetonitrile): No | Solution Yes/No 20 vol reflux ([3]; solvent Chloroform): No | Solution Yes/No 40 vol reflux ([3]; solvent Chloroform): No | Solution on cooling to R.T. ([3]; solvent Chloroform): No | Solution Yes/No 20 vol R.T. ([3]; solvent Chloroform): No | Solution on cooling to R.T. ([3]; solvent DMF): No | Solution Yes/No 20 vol R.T. ([3]; solvent DMF): No | Solution Yes/No 20 vol reflux ([3]; solvent DMF, heated to 100° C.): No | Solution Yes/No 40 vol reflux ([3]; solvent DMF, heated to 100° C.): Yes | Solution on cooling to R.T. ([3]; solvent DMSO): No | Solution Yes/No 20 vol R.T. ([3]; solvent DMSO): No | Solution Yes/No 20 vol reflux ([3]; solvent DMSO, heated to 100° C.): Yes | Solution Yes/No 20 vol reflux ([3]; solvent Ethanol): No | Solution Yes/No 40 vol reflux ([3]; solvent Ethanol): No | Solution on cooling to R.T. ([3]; solvent Ethanol): No | Solution Yes/No 20 vol R.T. ([3]; solvent Ethanol): No | Solution Yes/No 20 vol reflux ([3]; solvent Ethyl acetate): No | Solution Yes/No 40 vol reflux ([3]; solvent Ethyl acetate): No | Solution on cooling to R.T. ([3]; solvent Ethyl acetate): No | Solution Yes/No 20 vol R.T. ([3]; solvent Ethyl acetate): No | Solution Yes/No 20 vol reflux ([3]; solvent Heptanes): No | Solution Yes/No 40 vol reflux ([3]; solvent Heptanes): No | Solution on cooling to R.T. ([3]; solvent Heptanes): No | Solution Yes/No 20 vol R.T. ([3]; solvent Heptanes): No | Solution Yes/No 20 vol reflux ([3]; solvent IPA): No | Solution Yes/No 40 vol reflux ([3]; solvent IPA): No | Solution on cooling to R.T. ([3]; solvent IPA): No | Solution Yes/No 20 vol R.T. ([3]; solvent IPA): No | Solution Yes/No 20 vol reflux ([3]; solvent Methanol): No | Solution Yes/No 40 vol reflux ([3]; solvent Methanol): No | Solution on cooling to R.T. ([3]; solvent Methanol): No | Solution Yes/No 20 vol R.T. ([3]; solvent Methanol): No | Solution on cooling to R.T. ([3]; solvent NMP): Yes | Solution Yes/No 20 vol R.T. ([3]; solvent NMP): No | Solution Yes/No 20 vol reflux ([3]; solvent NMP, heated to 100° C.): Yes | Solution Yes/No 20 vol reflux ([3]; solvent TBME): No | Solution Yes/No 40 vol reflux ([3]; solvent TBME): No | Solution on cooling to R.T. ([3]; solvent TBME): No | Solution Yes/No 20 vol R.T. ([3]; solvent TBME): No | Solution Yes/No 20 vol reflux ([3]; solvent Toluene): No | Solution Yes/No 40 vol reflux ([3]; solvent Toluene): No | Solution on cooling to R.T. ([3]; solvent Toluene): No | Solution Yes/No 20 vol R.T. ([3]; solvent Toluene): No | Solution Yes/No 20 vol reflux ([3]; solvent Water): No | Solution Yes/No 40 vol reflux ([3]; solvent Water): No | Solution on cooling to R.T. ([3]; solvent Water): No | Solution Yes/No 20 vol R.T. ([3]; solvent Water): No | Solubility ([3]; variety of solvents (Table 1), organic solvent or mixture, thermodynamic from solid): < 25 mg/mL

c1c[nH]cn1 [Imidazole]
pKa of base [1]: 7 | pKa 1 [1]: 7

CNC[C@H](O)[C@@H](O)[C@H](O)[C@H](O)CO [N-methyl Glucamine]
pKa of base [1]: 8

Cc1c(Cc2ccc3ccccc3n2)c2cc(F)ccc2n1CC(=O)O [Potassium, (5-fluoro-2-methyl-3-quinolin-2-ylmethyl-indol-1-yl)acetic acid]
Solubility [2]: 32.36 mg/mL | pH [2, 4]: 12 | pH ([2]; pH of the filtered mixtures in water, listed as potassium): 12 | pKa of base [1]: 14.0

Cc1c(Cc2ccc3ccccc3n2)c2cc(F)ccc2n1CC(=O)O [Sodium, (5-fluoro-2-methyl-3-quinolin-2-ylmethyl-indol-1-yl)acetic acid]
Solubility [2]: 84.28 mg/mL | pH [2, 4]: 9 | solubility in water compared (in words) ([2]; water): most soluble | pKa of base [1]: 14.0

Cc1c(Cc2ccc3ccccc3n2)c2cc(F)ccc2n1CC(=O)O [Tris, (5-fluoro-2-methyl-3-quinolin-2-ylmethyl-indol-1-yl)acetic acid]
Solubility [2]: 3.26 mg/mL | pH [2, 4]: 9 | pKa of base [1]: 8

Deanol
pKa of base [1]: 8.8 | pKa 1 [1]: 8.8
